tested on: ECHCG; assay: greenhouse experiment, pre-emergence treatment; format: in vivo, Echinocloa crus-galli; conditions: pre-emergence method, application rate 1000 g/ha, scale from 0 to 100
Text: (§1) The seeds of the test plants were sown separately for each species. For the pre-emergence treatment, the active ingredients, which had been suspended or emulsified in water, were applied directly after sowing by means of finely distributing nozzles. The containers were irrigated gently to promote germination and growth and subsequently covered with transparent plastic hoods until the plants had rooted. This cover caused uniform germination of the test plants, unless this had been impaired by the active ingredients. Depending on the species, the plants were kept at 10-25° C. or 20-35° C., respectively. The test period extended over 2 to 4 weeks. During this time, the plants were tended, and their response to the individual treatments was evaluated. Evaluation was carried out using a scale from 0 to 100. 100 means no emergence of the plants, or complete destruction of at least the aerial moieties, and 0 means no damage, or normal course of growth. A good herbicidal activity is given at values of at least 70 and a very good herbicidal activity is given at values of at least 85. The plants used in the greenhouse experiments were of the following species: [table]

Compound | herbicidal activity against ECHCG
O=C(O)c1nc(C2CC2)ncc1-c1ccoc1Br [Example 14] | very good (a very good herbicidal activity is given at values of at least 85)
COC(=O)c1nc(C2CC2)ncc1-c1ncccc1Cl [Example 16] | good (A good herbicidal activity is given at values of at least 70)
O=C(O)c1nc(C2CC2)ncc1-c1ccsc1Cl [Example 12] | very good (a very good herbicidal activity is given at values of at least 85)
COC(=O)c1nc(C2CC2)ncc1-c1ccsc1Cl [Example 11] | very good (a very good herbicidal activity is given at values of at least 85)

same assay, conditions: pre-emergence method, application rate 2000 g/ha, scale from 0 to 100

Compound | herbicidal activity against ECHCG
O=C(O)c1nc(C2CC2)ncc1-c1ncccc1F [Example 23] | very good (a very good herbicidal activity is given at values of at least 85)
O=C(O)c1nc(C2CC2)ncc1-c1ccoc1Cl [Example 13] | very good (a very good herbicidal activity is given at values of at least 85)
O=C(O)c1nc(C2CC2)ncc1-c1ncc(F)cc1Cl [Example 42] | very good (a very good herbicidal activity is given at values of at least 85)
COC(=O)c1nc(C2CC2)ncc1-c1ccsc1C [Example 5] | very good (a very good herbicidal activity is given at values of at least 85)
COC(=O)c1nc(C2CC2)ncc1-c1cscc1C [Example 7] | very good (a very good herbicidal activity is given at values of at least 85)
COC(=O)c1nc(C2CC2)ncc1-c1sccc1C [Example 4] | very good (a very good herbicidal activity is given at values of at least 85)
O=C(O)c1nc(C2CC2)ncc1-c1cccnc1Br [Example 20] | very good (a very good herbicidal activity is given at values of at least 85)
CCc1ncc(-c2ncccc2Br)c(C(=O)OC)n1 [Example 43] | very good (a very good herbicidal activity is given at values of at least 85)
Cc1cscc1-c1cnc(C2CC2)nc1C(=O)O [Example 6] | very good (a very good herbicidal activity is given at values of at least 85)
COC(=O)c1nc(C2CC2)ncc1-c1ccoc1Cl [Example 15] | good (A good herbicidal activity is given at values of at least 70)
O=C(O)c1nc(C2CC2)ncc1-c1ccncc1F [Example 37] | very good (a very good herbicidal activity is given at values of at least 85)
Cc1sccc1-c1cnc(C2CC2)nc1C(=O)O [Example 8] | very good (a very good herbicidal activity is given at values of at least 85)
O=C(O)c1nc(C2CC2)ncc1-c1ncc(F)cc1F [Example 36] | very good (a very good herbicidal activity is given at values of at least 85)

tested on: ECHCG; assay: greenhouse experiment, post-emergence treatment; format: in vivo, Echinocloa crus-galli; conditions: post-emergence method, application rate 1000 g/ha, scale from 0 to 100
Method: The seeds of the test plants were sown separately for each species. […] For this purpose, the test plants were either sown directly and grown in the same containers, or they were first grown separately as seedlings and transplanted into the test containers a few days prior to treatment. Depending on the species, the plants were kept at 10-25° C. or 20-35° C., respectively. The test period extended over 2 to 4 weeks. During this time, the plants were tended, and their response to the individual treatments was evaluated. Evaluation was carried out using a scale from 0 to 100. 100 means no emergence of the plants, or complete destruction of at least the aerial moieties, and 0 means no damage, or normal course of growth. A good herbicidal activity is given at values of at least 70 and a very good herbicidal activity is given at values of at least 85. The plants used in the greenhouse experiments were of the following species: [table]

Compound | herbicidal activity against ECHCG
COC(=O)c1nc(C2CC2)ncc1-c1ncccc1Cl [Example 16] | very good (a very good herbicidal activity is given at values of at least 85)
COC(=O)c1nc(C2CC2)ncc1-c1cccnc1F [Example 25] | very good (a very good herbicidal activity is given at values of at least 85)
CCc1ncc(-c2ncccc2F)c(C(=O)O)n1 [Example 50] | very good (a very good herbicidal activity is given at values of at least 85)

same assay, conditions: post-emergence method, application rate 2000 g/ha, scale from 0 to 100

Compound | herbicidal activity against ECHCG
O=C(O)c1nc(C2CC2)ncc1-c1ncccc1F [Example 23] | very good (a very good herbicidal activity is given at values of at least 85)
O=C(O)c1nc(C2CC2)ncc1-c1ccoc1Cl [Example 13] | very good (a very good herbicidal activity is given at values of at least 85)
O=C(O)c1nc(C2CC2)ncc1-c1ncc(F)cc1Cl [Example 42] | very good (a very good herbicidal activity is given at values of at least 85)
COC(=O)c1nc(C2CC2)ncc1-c1cscc1C [Example 7] | very good (a very good herbicidal activity is given at values of at least 85)
COC(=O)c1nc(C2CC2)ncc1-c1sccc1C [Example 4] | very good (a very good herbicidal activity is given at values of at least 85)
O=C(O)c1nc(C2CC2)ncc1-c1cccnc1Br [Example 20] | very good (a very good herbicidal activity is given at values of at least 85)
COc1ncc(-c2ncccc2Br)c(C(=O)O)n1 [Example 51] | good (A good herbicidal activity is given at values of at least 70)
Cc1cscc1-c1cnc(C2CC2)nc1C(=O)O [Example 6] | very good (a very good herbicidal activity is given at values of at least 85)
O=C(O)c1nc(C2CC2)ncc1-c1ccncc1F [Example 37] | good (A good herbicidal activity is given at values of at least 70)

tested on: AVEFA; assay: greenhouse experiment, post-emergence treatment; format: in vivo, Avena fatua; conditions: post-emergence method, application rate 1000 g/ha, scale from 0 to 100
Text: (§2) The culture containers used were plastic flowerpots containing loamy sand with approximately 3.0% of humus as the substrate. The seeds of the test plants were sown separately for each species.
(§3) For the post-emergence treatment, the test plants were first grown to a height of 3 to 15 cm, depending on the plant habit, and only then treated with the active ingredients which had been suspended or emulsified in water. For this purpose, the test plants were either sown directly and grown in the same containers, or they were first grown separately as seedlings and transplanted into the test containers a few days prior to treatment.
(§4) Depending on the species, the plants were kept at 10-25° C. or 20-35° C., respectively.
(§5) The test period extended over 2 to 4 weeks. During this time, the plants were tended, and their response to the individual treatments was evaluated.
(§6) Evaluation was carried out using a scale from 0 to 100. 100 means no emergence of the plants, or complete destruction of at least the aerial moieties, and 0 means no damage, or normal course of growth. A good herbicidal activity is given at values of at least 70 and a very good herbicidal activity is given at values of at least 85.
(§7) The plants used in the greenhouse experiments were of the following species: […]

Compound | herbicidal activity against AVEFA
COC(=O)c1nc(C2CC2)ncc1-c1ncccc1Cl [Example 16] | good (A good herbicidal activity is given at values of at least 70)
O=C(O)c1nc(C2CC2)ncc1-c1ccsc1Cl [Example 12] | very good (a very good herbicidal activity is given at values of at least 85)
COC(=O)c1nc(C2CC2)ncc1-c1ccsc1Cl [Example 11] | good (A good herbicidal activity is given at values of at least 70)

same assay, conditions: post-emergence method, application rate 2000 g/ha, scale from 0 to 100

Compound | herbicidal activity against AVEFA
O=C(O)c1nc(C2CC2)ncc1-c1ncc(F)cc1Cl [Example 42] | very good (a very good herbicidal activity is given at values of at least 85)
O=C(O)c1nc(C2CC2)ncc1-c1cccnc1Br [Example 20] | very good (a very good herbicidal activity is given at values of at least 85)
COc1ncc(-c2ncccc2Br)c(C(=O)O)n1 [Example 51] | good (A good herbicidal activity is given at values of at least 70)
O=C(O)c1nc(C2CC2)ncc1-c1ncc(F)cc1F [Example 36] | very good (a very good herbicidal activity is given at values of at least 85)

tested on: ALOMY; assay: greenhouse experiment, post-emergence treatment; format: in vivo, Alopecurus myosuroides; conditions: post-emergence method, application rate 1000 g/ha, scale from 0 to 100
Text: as §2, §3, §4, §5, §6, §7

Compound | herbicidal activity against ALOMY
COC(=O)c1nc(C2CC2)ncc1-c1ncccc1Cl [Example 16] | very good (a very good herbicidal activity is given at values of at least 85)
O=C(O)c1nc(C2CC2)ncc1-c1ccsc1Cl [Example 12] | very good (a very good herbicidal activity is given at values of at least 85)
COC(=O)c1nc(C2CC2)ncc1-c1ccsc1Cl [Example 11] | very good (a very good herbicidal activity is given at values of at least 85)

same assay, conditions: post-emergence method, application rate 2000 g/ha, scale from 0 to 100

Compound | herbicidal activity against ALOMY
O=C(O)c1nc(C2CC2)ncc1-c1ncccc1F [Example 23] | very good (a very good herbicidal activity is given at values of at least 85)
O=C(O)c1nc(C2CC2)ncc1-c1ccoc1Cl [Example 13] | very good (a very good herbicidal activity is given at values of at least 85)
O=C(O)c1nc(C2CC2)ncc1-c1ncc(F)cc1Cl [Example 42] | very good (a very good herbicidal activity is given at values of at least 85)
COc1ncc(-c2ncccc2Br)c(C(=O)O)n1 [Example 51] | good (A good herbicidal activity is given at values of at least 70)
O=C(O)c1nc(C2CC2)ncc1-c1ccncc1F [Example 37] | good (A good herbicidal activity is given at values of at least 70)
O=C(O)c1nc(C2CC2)ncc1-c1ncc(F)cc1F [Example 36] | very good (a very good herbicidal activity is given at values of at least 85)

tested on: APESV; assay: greenhouse experiment, pre-emergence treatment; format: in vivo, Apera spica-venti; conditions: pre-emergence method, application rate 1000 g/ha, scale from 0 to 100
Text: as §1

Compound | herbicidal activity against APESV
O=C(O)c1nc(C2CC2)ncc1-c1ccoc1Br [Example 14] | good (A good herbicidal activity is given at values of at least 70)
COC(=O)c1nc(C2CC2)ncc1-c1ncccc1Cl [Example 16] | good (A good herbicidal activity is given at values of at least 70)
O=C(O)c1nc(C2CC2)ncc1-c1ccsc1Cl [Example 12] | very good (a very good herbicidal activity is given at values of at least 85)

same assay, conditions: pre-emergence method, application rate 2000 g/ha, scale from 0 to 100

Compound | herbicidal activity against APESV
O=C(O)c1nc(C2CC2)ncc1-c1ncccc1F [Example 23] | very good (a very good herbicidal activity is given at values of at least 85)
O=C(O)c1nc(C2CC2)ncc1-c1ccoc1Cl [Example 13] | very good (a very good herbicidal activity is given at values of at least 85)
O=C(O)c1nc(C2CC2)ncc1-c1ncc(F)cc1Cl [Example 42] | very good (a very good herbicidal activity is given at values of at least 85)
O=C(O)c1nc(C2CC2)ncc1-c1cccnc1Br [Example 20] | very good (a very good herbicidal activity is given at values of at least 85)
Cc1cscc1-c1cnc(C2CC2)nc1C(=O)O [Example 6] | very good (a very good herbicidal activity is given at values of at least 85)
O=C(O)c1nc(C2CC2)ncc1-c1ccncc1F [Example 37] | good (A good herbicidal activity is given at values of at least 70)
Cc1sccc1-c1cnc(C2CC2)nc1C(=O)O [Example 8] | very good (a very good herbicidal activity is given at values of at least 85)
O=C(O)c1nc(C2CC2)ncc1-c1ncc(F)cc1F [Example 36] | very good (a very good herbicidal activity is given at values of at least 85)
